What was measured:
[1] = Absorption and emission spectra of the exogenous fluorescent agent (FIG. 3); format: physicochemical
Excerpt: By way of illustrative example, FIG. 3 is a graph summarizing the absorption spectra for HbO2 and Hb, as well as the absorption and emission spectra of frequency spectra of MB-102, an exogenous fluorescent agent in one aspect. Emission spectra for a blue LED light source and a green LED light source are also shown superimposed over the other spectra of FIG. 3. In this aspect, the system 200 may include a blue LED as the first light source 218, and the excitatory wavelength for the system 200 may be the isosbestic wavelength of about 450 nm. […] However, at wavelengths above about 500 nm, the HbO2/Hb spectra are less steeply sloped, and a broader band light source including, but not limited to, an LED with a bandpass filter may suffice for use as a first light source 218.
In another aspect, the excitatory wave length may be selected to enhance the contrast in light absorbance between the exogenous fluorescent agent and the chromophores within the tissues of the patient 202. […] Without being limited to any particular theory, a higher proportion of light illuminating the tissue of the patient 202 at a wavelength of about 450 nm will be absorbed by the MB-102 relative to the HbO2 and Hb, thus enhancing the efficiency of absorption by the MB-102 and reducing the intensity of light at the excitatory wavelength needed to elicit a detectable fluorescence signal. […]

[2] = Transdermal fluorescence monitoring of renal elimination of the agent during perturbations (Example 1); format: in vivo; conditions: pig, time points later than 2 hours after agent injection, no baseline subtraction, FIG. 21B
Excerpt: A system similar to the system 200 described herein above was used to monitor the fluorescence produced during the renal elimination of an exogenous fluorescent agent, MB-102, using the methods described herein above, in particular the diffuse reflectance data correction method.
FIG. 21A is a graph summarizing the changes in the magnitude of the raw fluorescence signal (Flr) just prior to injection of the MB-102 fluorescent agent into a pig and for about six hours post-injection. During the post-equilibration portion, corresponding to a time of about 13:45 in FIG. 21A, the pig was subjected to a series of perturbations selected to vary the optical properties of the pig's skin and/or underlying tissues: administration of blood pressure medications to induce vasodilation/vasorestriction 2102, application of pressure to compress the tissue 2104, lateral movement of the sensor head 2106, SpO2 decrease 2108, SpO2 decrease 2110, remove/replace sensor head 2112/2114, and skin cooling 2116.
FIG. 21B is a graph summarizing the corrected intrinsic fluorescence signal (IF) corrected as described herein above with no baseline subtraction.

[3] = Transdermal fluorescence measurements from a patient before and after injection of the agent (FIG. 15); format: in vivo; conditions: about 10 hours after injection, after peak concentration
Description: FIG. 15 is a graph of fluorescence measurements obtained from a patient over a period of about 10 hours after injection of an exogenous fluorescence agent (MB-102) after a pre-injection period of about 3 hours. Referring to FIG. 15, the pre-injection/baseline period 1502 is characterized by a relatively low and stable fluorescence level, likely due the absence of […] fluorescent agent in the blood of the patient. […] Without being limited to any particular theory, it is thought the injected exogenous fluorescence agent is likely equilibrated across the extra-cellular space once the decay of the fluorescence is well-described by a […] (or a line on semi-log plot).

- light absorption relative to HbO2 and Hb ([1]; at the isosbestic wavelength of 452 nm): more than three-fold higher
- emission peak wavelength ([1]; emission spectrum): about 550 nm
- time course of fluorescence after injection [3]: relatively smooth exponential decrease
SMILES: Nc1nc(C(=O)N[C@H](CO)C(=O)O)c(N)nc1C(=O)N[C@H](CO)C(=O)O [MB-102]
- time course of corrected intrinsic fluorescence (IF) signal [2]: expected single-exponential decay of the signal
